We go through 16 molecules from patent US20240409536A1, “COMPOUNDS AND METHODS FOR MODULATING SPLICING” (REMIX THERAPEUTICS INC., priority 2021, published 2024).

The subject of data set [1] is SMN2 mRNA. As to the kind of experiment: Gene panel canonical junction qPCR assay, SMN2 CJ mRNA decrease. The data set is classed as cell-based, human. Conditions: Homo sapiens, canonical junction qPCR, read-out: SMN2 IC50 (decrease in CJ mRNA levels). Put shortly:
(§1)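 A673 or K562 cells treated with compound; canonical exon-exon junction mRNA quantified by cDNA synthesis and RT-qPCR with junction-spanning primer/probe, normalized to GAPDH, GUSB or PPIA and DMSO (2^(−ΔΔCt)). Percent response from set ΔCt assay windows fitted to 4-parameter logistic; IC50 for CJ decrease.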
A general note: Real-time PCR tracks product formation cycle by cycle.

The test system of data set [2] is HTT mRNA. As to the kind of experiment: Gene panel canonical junction qPCR assay, HTT CJ mRNA decrease. The format is cell-based, human. The conditions noted are these: Homo sapiens, canonical junction qPCR, read-out: HTT IC50 (decrease in CJ mRNA levels). A digest of the protocol:
as §1

The test system of data set [3] is HiBiT-tagged HTT protein. As to the kind of experiment: HiBiT protein abundance assay, HTT (K562 HiBiT knock-in cells). The conditions noted are these: 24 hours. The data set is classed as cell-based, human. A digest of the protocol:
(§2)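 K562 cells with endogenous HiBiT knock-in tag, 10-point 3-fold dilutions (top 10 μM final, ≤0.25% DMSO), 24 h at 37 °C. Lytic Nano-Glo HiBiT luminescence, normalized to DMSO and unmodified K562 baselines; IC50 is concentration giving 50% protein abundance from four-parameter fit.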
Background: HiBiT is a short tag that completes a luciferase, so light tracks the accessible tagged protein.

In data set [4] the test system is HiBiT-tagged MYB protein. In words: HiBiT protein abundance assay, MYB (K562 HiBiT knock-in cells). Conditions: 24 hours. The data set is classed as cell-based, human. Put shortly:
as §2

For data set [5], the system named is K562 cells. In words: Cell Titer Glo 2.0 cell viability assay in K562 cells. Conditions: 72 hours. (In general: ATP-based viability assays read luminescence as a measure of living cells.)
Protocol: Compounds described herein were screened for toxicity in K562 (human chronic myelogenous leukemia) and SH-SY5Y (human neuroblastoma) cells using a Cell Titer Glo 2.0 assay.
Cells were plated at 500 cells/well (K562 cells) in 45 μL of IMDM supplemented with 10% FBS in a 384-well opaque plate. Wells containing only medium were used as a blank control. Test compounds (e.g., compounds of Formula (I), (II), or (III)) were first serially diluted in DMSO then diluted 1:100 with IMDM+10% FBS. The final concentration of DMSO was 0.1% in each well. The cells were incubated for 72 hours at 37° C. and 5% CO2 before assaying with Cell Titer Glo 2.0 reagent.
Data set [6] has as its system MYB mRNA. In words: Gene panel canonical junction qPCR assay, MYB CJ mRNA decrease. The data set is classed as cell-based, human. The conditions noted are these: Homo sapiens, canonical junction qPCR, read-out: MYB IC50 (decrease in CJ mRNA levels). Put shortly: as §1
The subject of data set [7] is Target C. As to the kind of experiment: HiBiT protein abundance assay, Target C (K562 HiBiT knock-in cells). The format is cell-based, human. Conditions: 24 hours. Put shortly:
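K562 knock-in cells (10000/well, IMDM+1% FBS) treated 24 h at 37 °C with 10-point 3-fold dilutions, top final 10 μM, DMSO ≤0.25%. HiBiT lytic luminescence read; response normalized to unmodified K562 and DMSO-treated controls. IC50 interpolated at 50% abundance by four-parameter logistic fit.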

pIC50: −log10 of the molar value.

Broadly, the pIC50 is −log10 of the IC50, conventionally taken in molar units. `Cc1cn2cc(NC(=O)c3ccc(N4C[C@@H](C)N[C@@H](C5CC5)C4)c4nccnc34)cc(F)c2n1` [Compound 266, 8-((3S,5R)-3-cyclopropyl-5-methylpiperazin-1-yl)-N-(8-fluoro-2-methylimidazo[1,2-a]pyridin-6-yl)quinoxaline-5-carboxamide]: the pIC50 was more than 7.00 in data set [1]; 5.00 to 6.00 in data set [2]; 6.00 to 7.00 in data set [3]; more than 7.00 in data set [4]; more than 7.00 in data set [6]; 6.00 to 7.00 in data set [7]. Besides, in data set [5], the Viability result is on record as “B (B represents 100-1000 nM)”.
As to `Cc1cn2cc(NC(=O)c3ccc(N4C[C@@H](C5CC5)N[C@@H](C)C4)c4nccnc34)cc(F)c2n1` [Compound 267, 8-((3R,5S)-3-cyclopropyl-5-methylpiperazin-1-yl)-N-(8-fluoro-2-methylimidazo[1,2-a]pyridin-6-yl)quinoxaline-5-carboxamide], the pIC50 in data set [1] is more than 7.00; in data set [2], less than 5.00; in data set [3], 5.00 to 6.00; in data set [4] it was 6.00 to 7.00; in data set [6] it was 6.00 to 7.00; in data set [7], less than 5.00. The Viability entry in data set [5] is “B (B represents 100-1000 nM)”.
Consider `COc1ccc2c(N3C[C@@H](C)N[C@@H](C)C3)ccc(C(=O)Nc3cc(F)c4nc(C)cn4c3)c2n1` [Compound 268, 5-[(3R,5S)-3,5-dimethylpiperazin-1-yl]-N-{8-fluoro-2-methylimidazo[1,2-a]pyridin-6-yl}-2-methoxyquinoline-8-carboxamide], for which the negative-log IC50 (pIC50) in data set [1] was more than 7.00; in data set [2], 5.00 to 6.00; in data set [3], 5.00 to 6.00; in data set [4] it was more than 7.00; in data set [6] it was 6.00 to 7.00; in data set [7], 5.00 to 6.00. Also, the Viability result in data set [5] was “B (B represents 100-1000 nM)”.
Turning to `Cc1cn2cc(NC(=O)c3ccc(N4CC[C@@H](N)C4)c4ccnnc34)cc(F)c2n1` [Compound 270], the pIC50 in data set [1] was more than 7.00; in data set [2], 5.00 to 6.00; in data set [3], 5.00 to 6.00; in data set [4], 6.00 to 7.00; in data set [6], 6.00 to 7.00; in data set [7], 5.00 to 6.00. Moreover, the Viability result in data set [5] is reported as “B (B represents 100-1000 nM)”.
In the case of `COc1cc2c(N3C[C@@H](C)N[C@@H](C)C3)ccc(C(=O)Nc3cc(F)c4nc(C)cn4c3)c2nn1` [Compound 273, 5-[(3R,5S)-3,5-dimethylpiperazin-1-yl]-N-{8-fluoro-2-methylimidazo[1,2-a]pyridin-6-yl}-3-methoxycinnoline-8-carboxamide], the negative-log IC50 (pIC50) in data set [1] is more than 7.00; in data set [2] it was 6.00 to 7.00; in data set [3], 6.00 to 7.00; in data set [4], 6.00 to 7.00; in data set [6] it was 6.00 to 7.00; in data set [7], 6.00 to 7.00. In addition, the Viability entry in data set [5] is reported as “B (B represents 100-1000 nM)”.
As to `COc1nc(NC(=O)c2ccc(N3C[C@@H](C)N[C@@H](C)C3)c3nccnc23)cn2cc(C)nc12` [Compound 277], the pIC50 in data set [1] was more than 7.00; in data set [2] it was 6.00 to 7.00; in data set [3] it was 6.00 to 7.00; in data set [4], more than 7.00; in data set [6] it was more than 7.00; in data set [7], 5.00 to 6.00. Moreover, in data set [5], the Viability result is given as “B (B represents 100-1000 nM)”.
Take `Cc1cn2cc(NC(=O)c3ccc(N4C[C@@H](C)N[C@@H](C)C4)c4ncc(Cl)nc34)cc(F)c2n1` [Compound 281]: the negative logarithm of the IC50 (pIC50) in data set [1] is 5.00 to 6.00; in data set [2], less than 5.00; in data set [3] it was 5.00 to 6.00; in data set [4], 5.00 to 6.00; in data set [6] it was 5.00 to 6.00; in data set [7], 5.00 to 6.00. In addition, in data set [5], the Viability entry was “C (C represents 1000-9999 nM)”.
On to `Cc1cn2cc(NC(=O)c3ccc(N4C[C@@H](C)N[C@@H](C)C4)c4ncc(N(C)C)nc34)cc(F)c2n1` [Compound 283], for which the negative-log IC50 (pIC50) in data set [1] was more than 7.00; in data set [2], 6.00 to 7.00; in data set [3] it was 6.00 to 7.00; in data set [4], more than 7.00; in data set [6] it was more than 7.00; in data set [7], 6.00 to 7.00. Further, in data set [5], the Viability entry is given as “B (B represents 100-1000 nM)”.
In the case of `Cc1cn2c(C)c(NC(=O)c3ccc(N4C[C@@H](C)N[C@@H](C)C4)c4nccnc34)cc(F)c2n1` [Compound 285], the negative-log IC50 (pIC50) in data set [1] is 6.00 to 7.00; in data set [2] it was 5.00 to 6.00; in data set [3] it was 5.00 to 6.00; in data set [4], 6.00 to 7.00; in data set [6], 6.00 to 7.00; in data set [7], 5.00 to 6.00. Moreover, the Viability result in data set [5] is reported as “C (C represents 1000-9999 nM)”.
For `COc1nc(NC(=O)c2ccc(N3C[C@@H](C)N[C@@H](C)C3)c3nccnc23)nc2cn(C)nc12` [Compound 287], the negative-log IC50 (pIC50) was 5.00 to 6.00 in data set [1]; less than 5.00 in data set [2]; less than 5.00 in data set [3]; 5.00 to 6.00 in data set [4]; 5.00 to 6.00 in data set [6]; less than 5.00 in data set [7]. In addition, the Viability entry in data set [5] is given as “D (D represents greater than 10 μM in K562 cells)”.
With `Cc1cn2cc(NC(=O)c3ccc(N4C[C@@H](C)N[C@@H](C)C4)c4nccnc34)nc(C)c2n1` [Compound 288], the pIC50 is more than 7.00 in data set [1]; 5.00 to 6.00 in data set [2]; 5.00 to 6.00 in data set [3]; more than 7.00 in data set [4]; more than 7.00 in data set [6]; 5.00 to 6.00 in data set [7]. Besides, in data set [5], the Viability result is listed as “C (C represents 1000-9999 nM)”.
In the case of `C[C@@H]1CN(c2ccc(C(=O)Nc3ccc4nc(N(C)C)oc4c3)c3nccnc23)C[C@H](C)N1` [Compound 290], the pIC50 in data set [1] is less than 5.00; in data set [2], less than 5.00; in data set [3], less than 5.00; in data set [4] it was less than 5.00; in data set [6], 5.00 to 6.00; in data set [7], less than 5.00. Moreover, the Viability entry in data set [5] is reported as “D (D represents greater than 10 μM in K562 cells)”.
As for `COc1nc2ccc(NC(=O)c3ccc(N4C[C@@H](C)N[C@@H](C)C4)c4nccnc34)cc2o1` [Compound 292], the pIC50 is 5.00 to 6.00 in data set [1]; less than 5.00 in data set [2]; less than 5.00 in data set [3]; 5.00 to 6.00 in data set [4]; 5.00 to 6.00 in data set [6]; 5.00 to 6.00 in data set [7]. Besides, the Viability entry in data set [5] was “D (D represents greater than 10 μM in K562 cells)”.
In the case of `Cc1cn2cc(NC(=O)c3ccc(N4C[C@@H](C)N[C@@H](C)C4)c4nccnc34)cc(C#N)c2n1` [Compound 294], the pIC50 was more than 7.00 in data set [1]; 5.00 to 6.00 in data set [2]; less than 5.00 in data set [3]; 6.00 to 7.00 in data set [4]; 6.00 to 7.00 in data set [6]; less than 5.00 in data set [7]. Further, the Viability entry in data set [5] is listed as “D (D represents greater than 10 μM in K562 cells)”.
In the case of `CCOc1cnc2c(N3C[C@@H](C)N[C@@H](C)C3)ccc(C(=O)Nc3cc(F)c4nc(C)cn4c3)c2n1` [Compound 296], the negative-log IC50 (pIC50) in data set [1] was more than 7.00; in data set [2], 6.00 to 7.00; in data set [3], 6.00 to 7.00; in data set [4] it was more than 7.00; in data set [6], more than 7.00; in data set [7], 6.00 to 7.00. Moreover, in data set [5], the Viability entry is recorded as “B (B represents 100-1000 nM)”.
`COc1nc(NC(=O)c2ccc(N3C[C@@H](C)N[C@@H](C)C3)c3nccnc23)cc2oc(C)nc12` [Compound 298]: the pIC50 in data set [1] is more than 7.00; in data set [2], less than 5.00; in data set [3], 5.00 to 6.00; in data set [4], 6.00 to 7.00; in data set [6], 6.00 to 7.00; in data set [7], 5.00 to 6.00. Besides, the Viability entry in data set [5] is “C (C represents 1000-9999 nM)”.
